Measurements as given in ChEMBL document CHEMBL1201862, “PubChem BioAssay data set” (2004).
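Values below derive from 48-hour exposures of cells grown in 96-well plates, with endpoints linearly interpolated between the two concentrations bracketing the appropriate inhibition level. GI50 = concentration required for 50% inhibition of growth.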 Calls of active or inactive are those of the source. No stated cut-off is given here; in the data, active = GI50 up to about 1.1 µM and inactive = higher.

Experiments:
Experiment in all cases: NCI-60 cell line screen, 48 h
EKVX = test system: EKVX
HL-60 = test system: HL-60
SF-268 = test system: SF-268
SNB-75 = test system: SNB-75
UACC-257 = test system: UACC-257
SK-OV-3 = test system: SK-OV-3
OVCAR-4 = test system: OVCAR-4
A498 = test system: A498
LOX IMVI = test system: LOX IMVI
SF-539 = test system: SF-539
UO-31 = test system: UO-31
OVCAR-3 = test system: OVCAR-3
SNB-19 = test system: SNB-19
A549 = test system: A549
K562 = test system: K562
NCI-H226 = test system: NCI-H226
SF-295 = test system: SF-295

Row | Structure (SMILES) | GI50 (EKVX) | GI50 (HL-60) | GI50 (SF-268) | GI50 (SNB-75) | GI50 (UACC-257) | GI50 (SK-OV-3) | GI50 (OVCAR-4) | GI50 (A498) | GI50 (LOX IMVI) | GI50 (SF-539) | GI50 (UO-31) | GI50 (OVCAR-3) | GI50 (SNB-19) | GI50 (A549) | GI50 (K562) | GI50 (NCI-H226) | GI50 (SF-295)
1 | COc1ccc(C23c4ccc(OC)cc4CC2(c2ccc([N+](=O)[O-])cc2)Cc2cc(OC)ccc23)cc1 (stereo unspecified) | > 15.2 µM (inactive) | > 55 µM (inactive) | > 22.3 µM (inactive) | > 83.6 µM (inactive) | > 51.3 µM (inactive) | > 28.2 µM (inactive) | > 25.1 µM (inactive) | > 29.7 µM (inactive) | > 21.3 µM (inactive) | > 14.2 µM (inactive) | > 24.3 µM (inactive) | > 39.2 µM (inactive) | > 71.4 µM (inactive) | > 21.2 µM (inactive) | > 37.6 µM (inactive) | > 57.1 µM (inactive) | 
2 | N#Cc1c([N+](=O)[O-])cc(C(F)(F)F)cc1[N+](=O)[O-] | 18 µM (inactive) | 1.66 µM (inactive) | 13.1 µM (inactive) | 6.22 µM (inactive) | 6.7 µM (inactive) | 19.1 µM (inactive) | 2.11 µM (inactive) | 18.2 µM (inactive) | 2.64 µM (inactive) | 5.94 µM (inactive) | 19.2 µM (inactive) | 16.7 µM (inactive) | 18.3 µM (inactive) | 19.5 µM (inactive) | 2.05 µM (inactive) | 21.6 µM (inactive) | 4.74 µM (inactive)
3 | O=C1CCC2(c3ccccc3)Nc3ncccc3N12 (stereo unspecified) | > 100 µM (inactive) | > 100 µM (inactive) | > 100 µM (inactive) | 61.9 µM (inactive) | > 100 µM (inactive) | > 100 µM (inactive) | > 100 µM (inactive) | > 100 µM (inactive) | > 100 µM (inactive) | > 100 µM (inactive) | > 100 µM (inactive) | > 100 µM (inactive) |  | > 100 µM (inactive) | > 100 µM (inactive) | > 100 µM (inactive) | > 100 µM (inactive)
4 | COC(=O)C(CC1=C(O)Nc2ccccc2N1)/C(=N/NC(N)=O)C(=O)Nc1ccccc1C (stereo unspecified) | > 100 µM (inactive) | > 100 µM (inactive) | 16.5 µM (inactive) | > 100 µM (inactive) | > 100 µM (inactive) | > 100 µM (inactive) | > 100 µM (inactive) | > 100 µM (inactive) | 17.8 µM (inactive) | > 100 µM (inactive) | > 100 µM (inactive) | > 100 µM (inactive) | > 100 µM (inactive) | > 100 µM (inactive) | 97.7 µM (inactive) | > 100 µM (inactive) | > 100 µM (inactive)
5 | ON1CCc2c([nH]c3ccccc23)C1c1ccc(Cl)cc1 (stereo unspecified) | 35.8 µM (inactive) | 25.9 µM (inactive) | 33 µM (inactive) | 30.3 µM (inactive) | 30.1 µM (inactive) | 46.7 µM (inactive) |  | 33.1 µM (inactive) | 18.8 µM (inactive) | 30.5 µM (inactive) | 25.8 µM (inactive) | 27.4 µM (inactive) | 29 µM (inactive) | 30 µM (inactive) | 18.2 µM (inactive) | 20.3 µM (inactive) | 27.7 µM (inactive)
6 | COc1ccc(N2C(=O)C(N3C(=O)C=CC3=O)C2C=O)cc1 (stereo unspecified) | > 100 µM (inactive) | > 100 µM (inactive) | > 100 µM (inactive) | > 100 µM (inactive) | > 100 µM (inactive) | > 100 µM (inactive) |  | > 100 µM (inactive) | > 100 µM (inactive) | > 100 µM (inactive) | > 100 µM (inactive) | > 100 µM (inactive) | > 100 µM (inactive) | > 100 µM (inactive) | > 100 µM (inactive) |  | > 100 µM (inactive)
7 | CN(C)CCC(/C=C/c1ccccc1)=N\Nc1ccccc1 | 2.07 µM (inactive) | 0.564 µM (active) | 0.736 µM (active) | 3.48 µM (inactive) | 2.42 µM (inactive) | 3.56 µM (inactive) | 4.32 µM (inactive) | 12.5 µM (inactive) | 0.0493 µM (active) | 1.82 µM (inactive) | 1.4 µM (inactive) | 2.33 µM (inactive) | 3.88 µM (inactive) | 1.73 µM (inactive) | 0.325 µM (active) |  | 0.451 µM (active)
8 | COC(=O)C1C2CC3C(OC(=O)C31)C2OC(=O)[C@](OC)(c1ccccc1)C(F)(F)F (stereo partly specified) | > 100 µM (inactive) | > 100 µM (inactive) | > 100 µM (inactive) | > 100 µM (inactive) | > 100 µM (inactive) | > 100 µM (inactive) | > 100 µM (inactive) | > 100 µM (inactive) | > 100 µM (inactive) | > 100 µM (inactive) | > 100 µM (inactive) | > 100 µM (inactive) | > 100 µM (inactive) | > 100 µM (inactive) | > 100 µM (inactive) | > 100 µM (inactive) | 
9 | O=C1c2ccccc2C(=O)N1CCn1ccc(NC(c2ccccc2)(c2ccccc2)c2ccccc2)nc1=O | 49.1 µM (inactive) | 19 µM (inactive) | 19.2 µM (inactive) | 21.8 µM (inactive) | 18 µM (inactive) | 43.8 µM (inactive) | 25.5 µM (inactive) | 18.2 µM (inactive) | 17.1 µM (inactive) | 16 µM (inactive) | 21.2 µM (inactive) | 24.3 µM (inactive) | 25.2 µM (inactive) | 28.2 µM (inactive) | 20.3 µM (inactive) | 18.7 µM (inactive) | 15.1 µM (inactive)
